The source of these data is US20260092071A1, “COMPOUNDS AND COMPOSITIONS AS SMARCA2/4 DEGRADERS AND USES THEREOF” (REGENTS OF THE UNIVERSITY OF MICHIGAN, priority 2022, published 2026).

One experiment has as its target SMARCA4 (Homo sapiens, UniProt P51532). Kind of experiment: HiBiT assay for protein degradation, Hela SMARCA4-HiBiT cells (A series). It is filed as cell-based. Set-up: fuse HiBiT to the carboxy terminus of SMARCA2 (Promega CS302365) or SMARCA4 (Promega CS3023225); host or cells: HeLa (CRISPR/Cas9 HiBiT knock-in). As to conditions: for DC50: read-out: SMARC A4 Hela HiBit DC50; for Dmax: read-out: SMARC A4 Hela HiBit Dmax(%). As to the method:
Hela cells were genetically modified via CRISPR/Cas9 to fuse HiBiT to the carboxy terminus of SMARCA2 (Promega CS302365) or SMARCA4 (Promega CS3023225). Cells were cultured in DMEM containing 10% FBS and 1% (Vol:Vol) penicillin-streptomycin. […] At the end of experiment, levels of SMARCA2 or SMARCA4 expression were assessed with Nano-Glo® HiBiT Lytic Detection Assay (Promega N3050). IC50 was obtained using the GraphPad Prism data analysis software.

The next experiment concerns the target SMARCA2 (Homo sapiens, UniProt P51531). Kind of experiment: HiBiT assay for protein degradation, Hela SMARCA2-HiBiT cells (A series).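 For SMARC A2 Hela HiBit Dmax (%): 24 h compound treatment.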 The experiment is classed as cell-based. The arrangement: Hela cells were genetically modified via CRISPR/Cas9 to fuse HiBiT to the carboxy terminus of SMARCA2; host or cells: HeLa (CRISPR/Cas9 HiBiT knock-in). As to conditions: for DC50: read-out: SMARC A2 Hela HiBit DC50; for Dmax: read-out: SMARC A2 Hela HiBit Dmax (%). In outline:
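SMARCA2 degradation was measured in HeLa cells whose endogenous SMARCA2 carries a carboxy-terminal HiBiT tag introduced by CRISPR/Cas9 (Promega CS302365). Cells were maintained in DMEM with FBS and penicillin-streptomycin. SMARCA2 levels were read at the end of the experiment by Nano-Glo® HiBiT lytic luminescence (Promega N3050) and analyzed in GraphPad Prism.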
(HiBiT is a short tag that completes a luciferase, so light tracks the accessible tagged protein.)

Where [1] appears, read: Hela SMARCA4-HiBiT cells, 24 hours treatment.
[2] abbreviates: Hela SMARCA2-HiBiT cells, 24 hours treatment.

Molecules are shown by their SMILES. Where two headings read alike, the source gives them in different places.

Sequence of SMARCA2 (P51531 whole entry): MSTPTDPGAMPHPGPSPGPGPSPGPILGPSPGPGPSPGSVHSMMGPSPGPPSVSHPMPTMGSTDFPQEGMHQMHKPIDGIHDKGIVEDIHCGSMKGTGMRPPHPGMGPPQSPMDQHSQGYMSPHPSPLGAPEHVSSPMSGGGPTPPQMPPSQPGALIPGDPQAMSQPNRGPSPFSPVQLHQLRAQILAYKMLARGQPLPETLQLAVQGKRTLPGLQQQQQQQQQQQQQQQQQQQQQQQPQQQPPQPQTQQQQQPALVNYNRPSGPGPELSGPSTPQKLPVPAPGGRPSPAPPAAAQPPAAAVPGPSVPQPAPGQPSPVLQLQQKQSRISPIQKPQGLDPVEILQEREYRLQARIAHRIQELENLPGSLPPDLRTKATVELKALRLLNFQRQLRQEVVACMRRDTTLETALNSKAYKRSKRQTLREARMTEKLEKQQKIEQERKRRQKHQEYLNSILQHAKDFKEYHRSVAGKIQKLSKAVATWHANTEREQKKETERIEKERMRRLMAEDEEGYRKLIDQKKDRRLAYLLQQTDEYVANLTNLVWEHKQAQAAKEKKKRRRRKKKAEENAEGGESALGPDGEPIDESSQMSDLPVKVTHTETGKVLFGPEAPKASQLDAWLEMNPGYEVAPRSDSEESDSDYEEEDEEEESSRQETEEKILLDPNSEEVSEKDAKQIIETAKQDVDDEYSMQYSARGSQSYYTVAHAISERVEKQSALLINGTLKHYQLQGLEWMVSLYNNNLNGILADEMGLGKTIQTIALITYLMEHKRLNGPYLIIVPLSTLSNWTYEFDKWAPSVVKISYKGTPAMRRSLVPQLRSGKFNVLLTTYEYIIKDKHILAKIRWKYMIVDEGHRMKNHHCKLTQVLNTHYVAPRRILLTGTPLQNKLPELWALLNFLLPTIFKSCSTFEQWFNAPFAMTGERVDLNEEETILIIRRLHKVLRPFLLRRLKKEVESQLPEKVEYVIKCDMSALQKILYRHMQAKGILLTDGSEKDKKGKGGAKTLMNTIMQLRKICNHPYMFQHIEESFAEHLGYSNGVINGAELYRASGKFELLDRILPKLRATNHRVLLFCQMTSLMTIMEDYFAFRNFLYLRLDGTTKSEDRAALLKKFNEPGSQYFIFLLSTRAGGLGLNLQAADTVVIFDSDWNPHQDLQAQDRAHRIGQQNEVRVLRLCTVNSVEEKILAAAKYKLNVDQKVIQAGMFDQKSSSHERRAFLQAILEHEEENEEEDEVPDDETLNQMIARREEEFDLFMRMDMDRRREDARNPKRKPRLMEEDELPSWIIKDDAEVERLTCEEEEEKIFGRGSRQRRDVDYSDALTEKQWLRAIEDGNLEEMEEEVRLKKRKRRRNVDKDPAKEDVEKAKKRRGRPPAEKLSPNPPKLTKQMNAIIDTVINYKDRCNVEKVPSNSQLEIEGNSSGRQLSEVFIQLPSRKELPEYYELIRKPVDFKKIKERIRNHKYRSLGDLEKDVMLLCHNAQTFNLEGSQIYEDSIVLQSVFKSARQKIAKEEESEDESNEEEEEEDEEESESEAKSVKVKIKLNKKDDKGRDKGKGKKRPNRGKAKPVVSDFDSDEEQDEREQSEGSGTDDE
Sequence of SMARCA4 (P51532 whole entry): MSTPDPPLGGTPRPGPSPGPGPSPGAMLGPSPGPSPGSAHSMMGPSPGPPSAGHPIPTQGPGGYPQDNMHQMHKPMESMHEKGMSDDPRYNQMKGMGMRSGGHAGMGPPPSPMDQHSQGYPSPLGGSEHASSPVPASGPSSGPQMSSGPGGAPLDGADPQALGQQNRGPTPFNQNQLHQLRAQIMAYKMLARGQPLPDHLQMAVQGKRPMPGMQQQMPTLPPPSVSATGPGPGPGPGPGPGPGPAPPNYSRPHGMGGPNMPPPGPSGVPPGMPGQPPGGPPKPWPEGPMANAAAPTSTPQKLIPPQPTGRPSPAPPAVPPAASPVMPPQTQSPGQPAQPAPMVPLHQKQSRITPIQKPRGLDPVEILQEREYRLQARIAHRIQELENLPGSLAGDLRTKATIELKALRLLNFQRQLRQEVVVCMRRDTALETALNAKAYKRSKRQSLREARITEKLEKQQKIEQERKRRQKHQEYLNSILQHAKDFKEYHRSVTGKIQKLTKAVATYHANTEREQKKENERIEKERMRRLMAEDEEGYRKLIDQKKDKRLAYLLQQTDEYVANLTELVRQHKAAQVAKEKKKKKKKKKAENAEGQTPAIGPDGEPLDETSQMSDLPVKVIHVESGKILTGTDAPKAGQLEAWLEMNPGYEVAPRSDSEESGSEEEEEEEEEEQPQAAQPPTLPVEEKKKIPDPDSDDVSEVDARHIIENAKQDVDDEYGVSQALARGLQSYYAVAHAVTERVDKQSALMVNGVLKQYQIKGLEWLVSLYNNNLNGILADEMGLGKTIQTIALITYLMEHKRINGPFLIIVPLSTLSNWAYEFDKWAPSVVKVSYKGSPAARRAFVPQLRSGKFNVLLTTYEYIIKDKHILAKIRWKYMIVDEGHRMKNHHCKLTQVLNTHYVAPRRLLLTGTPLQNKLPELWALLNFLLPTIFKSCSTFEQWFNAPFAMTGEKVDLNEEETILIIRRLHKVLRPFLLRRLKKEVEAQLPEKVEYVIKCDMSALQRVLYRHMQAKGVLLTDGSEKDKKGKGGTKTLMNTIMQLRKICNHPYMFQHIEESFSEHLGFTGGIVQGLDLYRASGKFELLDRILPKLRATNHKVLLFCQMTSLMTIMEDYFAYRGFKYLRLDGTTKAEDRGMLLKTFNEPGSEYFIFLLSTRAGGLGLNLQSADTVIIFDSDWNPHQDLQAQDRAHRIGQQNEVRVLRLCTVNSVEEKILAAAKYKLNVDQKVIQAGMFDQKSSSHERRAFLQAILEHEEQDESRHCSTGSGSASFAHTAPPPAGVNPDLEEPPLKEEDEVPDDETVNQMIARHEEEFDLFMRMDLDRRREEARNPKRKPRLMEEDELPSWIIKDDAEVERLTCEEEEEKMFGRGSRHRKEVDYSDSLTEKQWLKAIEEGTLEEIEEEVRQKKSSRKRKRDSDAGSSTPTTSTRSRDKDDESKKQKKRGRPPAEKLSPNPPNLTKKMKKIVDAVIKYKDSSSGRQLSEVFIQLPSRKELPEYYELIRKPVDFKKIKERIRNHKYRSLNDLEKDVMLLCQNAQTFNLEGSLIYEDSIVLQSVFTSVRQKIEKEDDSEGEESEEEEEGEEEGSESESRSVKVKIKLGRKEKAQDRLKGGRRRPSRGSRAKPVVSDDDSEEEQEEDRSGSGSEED

As usually defined, the DC50 is the midpoint of the concentration-degradation curve. For orientation: Dmax means the greatest extent of degradation seen. As to `Cc1ncsc1-c1ccc([C@H](CCCCCN2CCC(c3ccc4c(c3)C3(CCCCC3)c3nc(=O)c5c(Br)cccc5n3-4)CC2)NC(=O)[C@@H]2C[C@@H](O)CN2C(=O)[C@@H](NC(=O)C2(N(C)C)CC2)C(C)(C)C)cc1` [Compound A17, (2S,4R)—N—((S)-6-(4-(4′-bromo-5′-oxo-5′H-spiro[cyclohexane-1,7′-indolo[1,2-a]quinazolin]-9′-yl)piperidin-1-yl)-1-(4-(4-methylthiazol-5-yl)phenyl)hexyl)-1-((S)-2-(1-(dimethylamino)cyclopropane-1-carboxamido)-3,3-dimethylbutanoyl)-4-hydroxypyrrolidine-2-carboxamide], at SMARCA4 (setting [1]), the half-maximal degradation concentration (DC50) was < 100 nM and the Dmax was > 90%. Also, on SMARCA2 (setting [2]), the DC50 was < 100 nM and the Dmax lay in the range of 70 to 90%.
`Cc1ncsc1-c1ccc([C@H](CCCCCN2CCC(c3ccc4c(c3)C3(CCCCC3)c3nc(=O)c5c(Br)cccc5n3-4)CC2)NC(=O)[C@@H]2C[C@@H](O)CN2C(=O)[C@@H](NC(=O)C2(CN(C)C)CC2)C(C)(C)C)cc1` [Compound A18, (2S,4R)—N—((S)-6-(4-(4′-bromo-5′-oxo-5′H-spiro[cyclohexane-1,7′-indolo[1,2-a]quinazolin]-9′-yl)piperidin-1-yl)-1-(4-(4-methylthiazol-5-yl)phenyl)hexyl)-1-((S)-2-(1-((dimethylamino)methyl)cyclopropane-1-carboxamido)-3,3-dimethylbutanoyl)-4-hydroxypyrrolidine-2-carboxamide]: the “SMARC A4 Hela HiBit Dmax(%)” value at SMARCA4 (setting [1]) is listed as “B (B (70-90% degradation))”. Also, the DC50 on SMARCA4 and on SMARCA2 was < 100 nM in each case. In addition, on SMARCA2 (setting [2]), the “SMARC A2 Hela HiBit Dmax (%)” value was “B (B (70-90% degradation))”.
`Cc1ncsc1-c1ccc([C@H](C)NC(=O)[C@@H]2C[C@@H](O)CN2C(=O)[C@@H](NC(=O)C2CC(CN3CCC(c4ccc5c(c4)C4(CCCCC4)c4nc(=O)c6c(Br)cccc6n4-5)CC3)C2)C(C)(C)C)cc1` (stereo partly drawn) [Compound A20, (2S,4R)-1-((S)-2-(3-((4-(4′-bromo-5′-oxo-5′H-spiro[cyclohexane-1,7′-indolo[1,2-a]quinazolin]-9′-yl)piperidin-1-yl)methyl)cyclobutane-1-carboxamido)-3,3-dimethylbutanoyl)-4-hydroxy-N—((S)-1-(4-(4-methylthiazol-5-yl)phenyl)ethyl)pyrrolidine-2-carboxamide]: the Dmax was < 50% on SMARCA4 (setting [1]) and > 90% on SMARCA2 (HeLa). In addition, the DC50 was > 1000 nM on SMARCA4 and < 100 nM on SMARCA2.
`Cc1ncsc1-c1ccc([C@H](CN2CCOCC2)NC(=O)[C@@H]2C[C@@H](O)CN2C(=O)[C@@H](NC(=O)C2CC(CN3CCC(c4ccc5c(c4)C4(CCCCC4)c4nc(=O)c6c(Br)cccc6n4-5)CC3)C2)C(C)(C)C)cc1` (stereo partly drawn) [Compound A21, (2S,4R)-1-((S)-2-(3-((4-(4′-bromo-5′-oxo-5′H-spiro[cyclohexane-1,7′-indolo[1,2-a]quinazolin]-9′-yl)piperidin-1-yl)methyl)cyclobutane-1-carboxamido)-3,3-dimethylbutanoyl)-4-hydroxy-N—((R)-1-(4-(4-methylthiazol-5-yl)phenyl)-2-morpholinoethyl)pyrrolidine-2-carboxamide]: the “SMARC A4 Hela HiBit Dmax(%)” value at SMARCA4 (setting [1]) is listed as “C (C (50-69% degradation))”. Further, the DC50 at SMARCA4 and on SMARCA2 was 100 to 500 nM throughout. Moreover, the “SMARC A2 Hela HiBit Dmax (%)” value on SMARCA2 (setting [2]) is reported as “A (A (>90% degradation))”.
In the case of `Cc1ncsc1-c1ccc([C@H](CN2CCOCC2)NC(=O)[C@@H]2C[C@@H](O)CN2C(=O)[C@@H](NC(=O)C23CCC(CN4CCC(c5ccc6c(c5)C5(CCCCC5)c5nc(=O)c7c(Br)cccc7n5-6)CC4)(CC2)C3)C(C)(C)C)cc1` [Compound A22, (2S,4R)-1-((S)-2-(4-((4-(4′-bromo-5′-oxo-5′H-spiro[cyclohexane-1,7′-indolo[1,2-a]quinazolin]-9′-yl)piperidin-1-yl)methyl)bicyclo[2.2.1]heptane-1-carboxamido)-3,3-dimethylbutanoyl)-4-hydroxy-N—((R)-1-(4-(4-methylthiazol-5-yl)phenyl)-2-morpholinoethyl)pyrrolidine-2-carboramide], the “SMARC A4 Hela HiBit Dmax(%)” value on SMARCA4 (setting [1]) is on record as “A (A (>90% degradation))”. Moreover, the 50% degradation concentration (DC50) at SMARCA4 and on SMARCA2 was < 100 nM throughout. For the same compound, the “SMARC A2 Hela HiBit Dmax (%)” value on SMARCA2 (setting [2]) is given as “A (A (>90% degradation))”.
Consider `Cc1ncsc1-c1ccc([C@H](C)NC(=O)[C@@H]2C[C@@H](O)CN2C(=O)[C@@H](NC(=O)C23CCC(CN4CCC(c5ccc6c(c5)-n5c(nc(=O)c7c(Br)cccc75)C65CCCCC5)CC4)(CC2)C3)C(C)(C)C)cc1` [Compound A23, (2S,4R)-1-((S)-2-(4-((4-(4′-bromo-5′-oxo-5′H-spiro[cyclohexane-1,7′-indolo[1,2-a]quinazolin]-10′-yl)piperidin-1-yl)methyl)bicyclo[2.2.1]heptane-1-carboxamido)-3,3-dimethylbutanoyl)-4-hydroxy-N—((S)-1-(4-(4-methylthiazol-5-yl)phenyl)ethyl)pyrrolidine-2-carboxamide], for which the Dmax on SMARCA4 (setting [1]) was 70 to 90%; at SMARCA2 (HeLa) it was > 90%. Also, the values for the DC50 on SMARCA4 and on SMARCA2 were 100 to 500 nM and < 100 nM, respectively.
Take `Cc1ncsc1-c1ccc([C@H](CN2CCOCC2)NC(=O)[C@@H]2C[C@@H](O)CN2C(=O)[C@@H](NC(=O)C23CCC(CN4CCC(c5ccc6c(c5)-n5c(nc(=O)c7c(Br)cccc75)C65CCCCC5)CC4)(CC2)C3)C(C)(C)C)cc1` [Compound A24, (2S,4R)-1-((S)-2-(4-((4-(4′-bromo-5′-oxo-5′H-spiro[cyclohexane-1,7′-indolo[1,2-a]quinazolin]-10′-yl)piperidin-1-yl)methyl)bicyclo[2.2.1]heptane-1-carboxamido)-3,3-dimethylbutanoyl)-4-hydroxy-N—((R)-1-(4-(4-methylthiazol-5-yl)phenyl)-2-morpholinoethyl)pyrrolidine-2-carboxamide]: the “SMARC A4 Hela HiBit Dmax(%)” value on SMARCA4 (setting [1]) was “B (B (70-90% degradation))”. For the same compound, the half-maximal degradation concentration (DC50) at SMARCA4 is 100 to 500 nM; on SMARCA2 it was < 100 nM. At SMARCA2 (setting [2]), the “SMARC A2 Hela HiBit Dmax (%)” value was “A (A (>90% degradation))”.
Regarding `CC(C)(C)[C@H](NC(=O)C1(F)CC1)C(=O)N1C[C@H](O)C[C@H]1C(=O)N[C@@H](CCCCCN1CCC(c2ccc3c(c2)C2(CCCCC2)c2nc(=O)c4c(Br)cccc4n2-3)CC1)c1ccc(Cl)cc1` [Compound A25, (2S,4R)—N—((S)-6-(4-(4′-bromo-5′-oxo-5′H-spiro[cyclohexane-1,7-indolo[1,2-a]quinazolin]-9′-yl)piperidin-1-yl)-1-(4-chlorophenyl)hexyl)-1-((S)-2-(1-fluorocyclopropane-1-carboxamido)-3,3-dimethylbutanoyl)-4-hydroxypyrrolidine-2-carboxamide], the DC50 on SMARCA4 (setting [1]) and at SMARCA2 (setting [2]) was > 1000 nM throughout. Also, the Dmax on SMARCA4 (setting [1]) and on SMARCA2 (setting [2]) was < 50% each time.
`CC(C)(C)[C@H](NC(=O)C1(F)CC1)C(=O)N1C[C@H](O)C[C@H]1C(=O)N[C@@H](CCCCCN1CCC(c2ccc3c(c2)-n2c(nc(=O)c4c(Br)cccc42)C32CCCCC2)CC1)c1ccc(Cl)cc1` [Compound A26, (2S,4R)—N—((S)-6-(4-(4′-bromo-5′-oxo-5′H-spiro[cyclohexane-1,7′-indolo[1,2-a]quinazolin]-10′-yl)piperidin-1-yl)-1-(4-chlorophenyl)hexyl)-1-((S)-2-(1-fluorocyclopropane-1-carboxamido)-3,3-dimethylbutanoyl)-4-hydroxypyrrolidine-2-carboxamide]: at SMARCA4 (setting [1]), the “SMARC A4 Hela HiBit Dmax(%)” value is “D (D (<50% degradation))”. Also, the DC50 on SMARCA4 and at SMARCA2 was > 1000 nM in each case. The “SMARC A2 Hela HiBit Dmax (%)” value on SMARCA2 (setting [2]) was “D (D (<50% degradation))”.
